Measurements reported in ChEMBL document CHEMBL1201862, “PubChem BioAssay data set” (2004).
Calls of active or inactive are those of the source.

Experiments:
Type in all cases: functional
[1] = target: Protein kinase C theta type (Homo sapiens, UniProt Q04759); experiment: Navigating the Kinome. Panel member name: PRKCQ
[2] = target: Dual specificity mitogen-activated protein kinase kinase 1 (Homo sapiens, UniProt Q02750); experiment: Navigating the Kinome. Panel member name: MAP2K1
[3] = target: Tyrosine-protein kinase JAK2 (Homo sapiens, UniProt O60674);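 further: JAK2 tested as one member of a kinase panel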
[4] = target: Serine/threonine-protein kinase TBK1 (Homo sapiens, UniProt Q9UHD2); experiment: Navigating the Kinome. Panel member name: TBK1
[5] = target: 5'-AMP-activated protein kinase catalytic subunit alpha-1 (Homo sapiens, UniProt Q13131)
[6] = target: ALK tyrosine kinase receptor (Homo sapiens, UniProt Q9UM73);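 further: ALK tested as one member of a kinase panel screen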
[7] = target: Proto-oncogene tyrosine-protein kinase receptor Ret (Homo sapiens, UniProt P07949);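 further: measured within a kinome-wide profiling panel, RET as the panel member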
[8] = target: Death-associated protein kinase 3 (Homo sapiens, UniProt O43293);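 further: measured as one member of a kinome-wide profiling panel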
[9] = target: Activin receptor type-1 (Homo sapiens, UniProt Q04771); experiment: Navigating the Kinome. Panel member name: ACVR1
[10] = target: Mitogen-activated protein kinase 8 (Homo sapiens, UniProt P45983);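 further: value comes from one member of a kinome-wide kinase profiling panel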
[11] = target: Tyrosine-protein kinase BTK (Homo sapiens, UniProt Q06187)
[12] = target: Serine/threonine-protein kinase PAK 4 (Homo sapiens, UniProt O96013);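 further: value obtained within a kinome profiling panel in which PAK4 was one of the panel members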
[13] = target: LIM domain kinase 1 (Homo sapiens, UniProt P53667); experiment: Navigating the Kinome. Panel member name: LIMK1
[14] = target: Homeodomain-interacting protein kinase 2 (Homo sapiens, UniProt Q9H2X6);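 further: measured within a kinome-wide kinase profiling panel, HIPK2 being one panel member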
[15] = target: High affinity nerve growth factor receptor (Homo sapiens, UniProt P04629);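 further: NTRK1 tested as one member of a kinome-wide profiling panel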
[16] = target: Glycogen synthase kinase-3 alpha (Homo sapiens, UniProt P49840);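 further: GSK3A result taken from a broad kinome-wide kinase panel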
[17] = target: Hepatocyte growth factor receptor (Homo sapiens, UniProt P08581);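 further: kinase panel profiling across the kinome, with MET as the panel member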
[18] = target: Activated CDC42 kinase 1 (Homo sapiens, UniProt Q07912); experiment: Navigating the Kinome. Panel member name: ACK1
[19] = target: Receptor-type tyrosine-protein kinase FLT3 (Homo sapiens, UniProt P36888);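 further: FLT3 was tested as one member of a kinome-wide kinase panel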
[20] = target: T1, Serine/threonine-protein kinase Chk1 (Homo sapiens, UniProt O14757);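 further: measured as one member of a kinome-wide kinase profiling panel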
T1 sequence (O14757 whole entry): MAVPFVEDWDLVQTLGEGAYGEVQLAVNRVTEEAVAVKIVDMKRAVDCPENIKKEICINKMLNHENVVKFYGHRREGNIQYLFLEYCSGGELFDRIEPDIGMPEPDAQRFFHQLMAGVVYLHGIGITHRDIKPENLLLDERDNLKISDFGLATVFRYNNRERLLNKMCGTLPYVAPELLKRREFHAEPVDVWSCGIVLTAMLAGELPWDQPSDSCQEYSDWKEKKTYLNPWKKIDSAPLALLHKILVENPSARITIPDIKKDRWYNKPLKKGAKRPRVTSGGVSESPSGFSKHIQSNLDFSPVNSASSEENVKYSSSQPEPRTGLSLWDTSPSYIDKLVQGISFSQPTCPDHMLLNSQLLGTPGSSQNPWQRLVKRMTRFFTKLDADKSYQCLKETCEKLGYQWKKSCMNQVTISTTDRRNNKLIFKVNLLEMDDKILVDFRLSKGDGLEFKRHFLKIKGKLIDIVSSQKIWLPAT

[21] = target: Tyrosine-protein kinase ABL1 (Homo sapiens, UniProt P00519)
[22] = target: Vascular endothelial growth factor receptor 2 (Homo sapiens, UniProt P35968)
[23] = target: Dual specificity tyrosine-phosphorylation-regulated kinase 1B (Homo sapiens, UniProt Q9Y463); experiment: Navigating the Kinome. Panel member name: DYRK1B
[24] = target: Focal adhesion kinase 1 (Homo sapiens, UniProt Q05397);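 further: measured as one member of a kinome panel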
[25] = target: Platelet-derived growth factor receptor alpha (Homo sapiens, UniProt P16234); experiment: Navigating the Kinome. Panel member name: PDGFRA
[26] = target: Leucine-rich repeat serine/threonine-protein kinase 2 (Homo sapiens, UniProt Q5S007);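 further: value from a broad kinome-wide panel profiling study in which LRRK2 was one of the kinases tested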
[27] = target: Mitogen-activated protein kinase kinase kinase kinase 5 (Homo sapiens, UniProt Q9Y4K4);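 further: measured as one member of a kinome-spanning kinase panel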
[28] = target: Tyrosine-protein kinase Fyn (Homo sapiens, UniProt P06241)
[29] = target: Serine/threonine-protein kinase Nek2 (Homo sapiens, UniProt P51955)
[30] = target: Cyclin-dependent kinase 8 (Homo sapiens, UniProt P49336); experiment: Navigating the Kinome. Panel member name: CDK8
[31] = target: Cyclin-dependent kinase 7 (Homo sapiens, UniProt P50613);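 further: value comes from a kinome-wide kinase profiling panel in which CDK7 is one member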
[32] = target: Vascular endothelial growth factor receptor 1 (Homo sapiens, UniProt P17948);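 further: measured within a kinome-wide profiling panel, FLT1 as the panel member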
[33] = target: BDNF/NT-3 growth factors receptor (Homo sapiens, UniProt Q16620);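 further: NTRK2 measured as one member of a broad kinome-wide kinase profiling panel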
[34] = target: Dual specificity protein kinase CLK4 (Homo sapiens, UniProt Q9HAZ1)
[35] = target: Mitogen-activated protein kinase kinase kinase kinase 4 (Homo sapiens, UniProt O95819)
[36] = target: Dual specificity mitogen-activated protein kinase kinase 2 (Homo sapiens, UniProt P36507); experiment: Navigating the Kinome. Panel member name: MAP2K2
[37] = target: Dual specificity tyrosine-phosphorylation-regulated kinase 1A (Homo sapiens, UniProt Q13627);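 further: measured against DYRK1A as one member of a broad kinome profiling panel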
[38] = target: Calcium/calmodulin-dependent protein kinase type II subunit alpha (Homo sapiens, UniProt Q9UQM7); experiment: Navigating the Kinome. Panel member name: CAMK2A
[39] = target: Leukocyte tyrosine kinase receptor (Homo sapiens, UniProt P29376); experiment: Navigating the Kinome. Panel member name: LTK

Chain of Tyrosine-protein kinase Fyn (P06241 whole entry): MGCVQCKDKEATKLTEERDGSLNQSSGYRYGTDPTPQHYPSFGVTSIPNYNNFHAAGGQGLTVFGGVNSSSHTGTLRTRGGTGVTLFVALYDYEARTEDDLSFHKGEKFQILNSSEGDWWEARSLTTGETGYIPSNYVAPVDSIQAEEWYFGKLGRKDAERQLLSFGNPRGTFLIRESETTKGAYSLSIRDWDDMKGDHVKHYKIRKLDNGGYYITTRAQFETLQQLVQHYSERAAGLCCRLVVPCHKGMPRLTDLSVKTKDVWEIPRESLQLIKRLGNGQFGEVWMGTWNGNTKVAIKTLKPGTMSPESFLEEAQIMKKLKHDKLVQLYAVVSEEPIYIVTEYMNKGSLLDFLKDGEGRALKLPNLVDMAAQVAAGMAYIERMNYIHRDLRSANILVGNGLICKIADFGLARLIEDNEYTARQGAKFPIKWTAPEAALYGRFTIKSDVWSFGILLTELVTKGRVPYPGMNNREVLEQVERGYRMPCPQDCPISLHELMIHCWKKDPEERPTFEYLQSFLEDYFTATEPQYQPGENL
Chain of Tyrosine-protein kinase BTK (Q06187 whole entry): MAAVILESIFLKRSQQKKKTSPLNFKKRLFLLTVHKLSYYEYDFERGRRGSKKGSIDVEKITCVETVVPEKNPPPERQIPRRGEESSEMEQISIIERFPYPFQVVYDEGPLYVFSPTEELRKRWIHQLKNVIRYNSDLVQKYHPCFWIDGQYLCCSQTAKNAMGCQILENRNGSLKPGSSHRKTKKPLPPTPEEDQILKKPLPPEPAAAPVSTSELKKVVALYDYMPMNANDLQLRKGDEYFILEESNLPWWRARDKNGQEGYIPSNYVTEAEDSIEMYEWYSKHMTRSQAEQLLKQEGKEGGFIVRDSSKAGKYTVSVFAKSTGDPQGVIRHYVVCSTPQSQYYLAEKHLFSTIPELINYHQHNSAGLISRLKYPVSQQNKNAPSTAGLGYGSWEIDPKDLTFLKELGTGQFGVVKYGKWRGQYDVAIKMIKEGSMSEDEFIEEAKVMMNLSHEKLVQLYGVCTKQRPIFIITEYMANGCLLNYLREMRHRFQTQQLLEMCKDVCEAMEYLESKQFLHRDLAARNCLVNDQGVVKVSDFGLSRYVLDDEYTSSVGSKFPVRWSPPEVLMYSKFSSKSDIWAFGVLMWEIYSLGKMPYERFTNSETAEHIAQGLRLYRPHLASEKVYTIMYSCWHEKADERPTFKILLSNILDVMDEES
Chain of Death-associated protein kinase 3 (O43293 whole entry): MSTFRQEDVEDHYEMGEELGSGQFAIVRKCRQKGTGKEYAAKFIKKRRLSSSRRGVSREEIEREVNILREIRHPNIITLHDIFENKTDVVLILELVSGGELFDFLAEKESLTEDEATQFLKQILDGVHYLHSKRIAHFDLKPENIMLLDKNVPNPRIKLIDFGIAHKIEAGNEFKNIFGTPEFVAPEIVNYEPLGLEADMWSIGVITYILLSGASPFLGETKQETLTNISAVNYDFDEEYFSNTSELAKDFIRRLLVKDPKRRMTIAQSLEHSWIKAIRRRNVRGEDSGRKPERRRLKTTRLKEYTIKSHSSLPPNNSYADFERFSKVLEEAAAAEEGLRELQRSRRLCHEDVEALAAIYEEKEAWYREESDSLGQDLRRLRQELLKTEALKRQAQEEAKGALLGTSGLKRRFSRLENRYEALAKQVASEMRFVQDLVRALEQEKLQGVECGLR
Chain of LIM domain kinase 1 (P53667 whole entry, the tested form may be a part): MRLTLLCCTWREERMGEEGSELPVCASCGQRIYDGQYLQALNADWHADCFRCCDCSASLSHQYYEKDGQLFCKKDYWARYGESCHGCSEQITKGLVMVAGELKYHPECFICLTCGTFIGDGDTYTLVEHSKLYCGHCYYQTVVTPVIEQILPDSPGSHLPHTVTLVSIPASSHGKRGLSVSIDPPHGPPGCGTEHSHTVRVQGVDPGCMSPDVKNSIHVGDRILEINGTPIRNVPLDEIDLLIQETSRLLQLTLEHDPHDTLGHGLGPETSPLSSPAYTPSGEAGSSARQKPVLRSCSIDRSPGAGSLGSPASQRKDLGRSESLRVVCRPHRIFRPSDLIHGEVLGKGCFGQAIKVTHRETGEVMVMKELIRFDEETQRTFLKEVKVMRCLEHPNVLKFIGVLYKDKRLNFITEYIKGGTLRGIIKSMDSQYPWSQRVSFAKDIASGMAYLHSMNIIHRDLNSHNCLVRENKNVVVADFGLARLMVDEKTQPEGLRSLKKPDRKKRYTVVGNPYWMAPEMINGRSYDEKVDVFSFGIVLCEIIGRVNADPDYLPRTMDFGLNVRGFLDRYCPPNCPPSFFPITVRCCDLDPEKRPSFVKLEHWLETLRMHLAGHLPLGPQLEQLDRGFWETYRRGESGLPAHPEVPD
Chain of Dual specificity tyrosine-phosphorylation-regulated kinase 1B (Q9Y463 whole entry): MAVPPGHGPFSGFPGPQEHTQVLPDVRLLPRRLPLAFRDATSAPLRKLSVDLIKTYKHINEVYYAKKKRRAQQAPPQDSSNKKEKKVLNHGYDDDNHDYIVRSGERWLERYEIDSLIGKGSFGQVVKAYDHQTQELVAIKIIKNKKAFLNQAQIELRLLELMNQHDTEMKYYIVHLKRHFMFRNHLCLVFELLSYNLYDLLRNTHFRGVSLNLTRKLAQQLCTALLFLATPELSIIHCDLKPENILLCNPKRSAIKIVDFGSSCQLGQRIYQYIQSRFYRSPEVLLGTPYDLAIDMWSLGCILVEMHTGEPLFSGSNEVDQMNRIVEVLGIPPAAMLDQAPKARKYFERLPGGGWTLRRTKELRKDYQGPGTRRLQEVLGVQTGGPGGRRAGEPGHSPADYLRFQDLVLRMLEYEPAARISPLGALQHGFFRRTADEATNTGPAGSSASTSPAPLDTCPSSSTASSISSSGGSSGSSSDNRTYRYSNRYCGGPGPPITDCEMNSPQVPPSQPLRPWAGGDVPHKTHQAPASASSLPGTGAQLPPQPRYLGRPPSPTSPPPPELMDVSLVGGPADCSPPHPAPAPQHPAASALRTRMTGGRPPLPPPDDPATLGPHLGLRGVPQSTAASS
Chain of Cyclin-dependent kinase 8 (P49336 whole entry): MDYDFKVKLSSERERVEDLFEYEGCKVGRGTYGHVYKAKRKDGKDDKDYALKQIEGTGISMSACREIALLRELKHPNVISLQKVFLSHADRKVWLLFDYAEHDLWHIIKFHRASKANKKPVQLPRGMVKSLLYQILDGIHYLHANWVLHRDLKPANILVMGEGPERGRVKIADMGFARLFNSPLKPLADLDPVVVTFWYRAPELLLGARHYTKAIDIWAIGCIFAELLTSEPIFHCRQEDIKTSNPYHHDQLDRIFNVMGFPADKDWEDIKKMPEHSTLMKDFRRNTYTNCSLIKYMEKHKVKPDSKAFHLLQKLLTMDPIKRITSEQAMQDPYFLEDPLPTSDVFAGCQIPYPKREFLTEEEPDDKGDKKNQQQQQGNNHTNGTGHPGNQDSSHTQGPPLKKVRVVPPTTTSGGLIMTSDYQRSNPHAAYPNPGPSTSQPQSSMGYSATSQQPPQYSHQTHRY
Chain of Dual specificity protein kinase CLK4 (Q9HAZ1 whole entry): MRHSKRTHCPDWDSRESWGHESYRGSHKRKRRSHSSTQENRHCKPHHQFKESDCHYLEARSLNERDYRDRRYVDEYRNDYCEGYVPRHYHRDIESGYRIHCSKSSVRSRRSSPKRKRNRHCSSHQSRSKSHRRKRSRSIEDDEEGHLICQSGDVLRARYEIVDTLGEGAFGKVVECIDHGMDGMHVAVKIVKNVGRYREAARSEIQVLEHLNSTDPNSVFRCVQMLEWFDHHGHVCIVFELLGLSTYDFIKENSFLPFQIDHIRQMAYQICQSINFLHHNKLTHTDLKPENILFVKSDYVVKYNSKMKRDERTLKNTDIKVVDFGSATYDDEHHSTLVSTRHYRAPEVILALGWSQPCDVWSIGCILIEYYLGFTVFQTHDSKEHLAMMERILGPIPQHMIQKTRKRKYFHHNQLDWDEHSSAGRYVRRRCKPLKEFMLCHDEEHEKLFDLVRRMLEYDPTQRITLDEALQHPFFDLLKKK
Chain of Mitogen-activated protein kinase 8 (P45983 whole entry): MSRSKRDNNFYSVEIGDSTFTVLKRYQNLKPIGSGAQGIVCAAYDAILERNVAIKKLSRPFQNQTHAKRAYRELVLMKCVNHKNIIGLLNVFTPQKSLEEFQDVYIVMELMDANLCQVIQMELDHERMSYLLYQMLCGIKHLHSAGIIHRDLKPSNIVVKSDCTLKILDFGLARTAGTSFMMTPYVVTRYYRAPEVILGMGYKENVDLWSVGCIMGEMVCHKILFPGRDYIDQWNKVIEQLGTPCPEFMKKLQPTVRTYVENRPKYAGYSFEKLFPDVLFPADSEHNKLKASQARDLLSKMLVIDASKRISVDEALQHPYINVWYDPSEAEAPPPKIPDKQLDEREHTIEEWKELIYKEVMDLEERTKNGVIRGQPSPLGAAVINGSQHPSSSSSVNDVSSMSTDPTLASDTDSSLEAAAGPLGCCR
Chain of Serine/threonine-protein kinase PAK 4 (O96013 whole entry, the tested form may be a part): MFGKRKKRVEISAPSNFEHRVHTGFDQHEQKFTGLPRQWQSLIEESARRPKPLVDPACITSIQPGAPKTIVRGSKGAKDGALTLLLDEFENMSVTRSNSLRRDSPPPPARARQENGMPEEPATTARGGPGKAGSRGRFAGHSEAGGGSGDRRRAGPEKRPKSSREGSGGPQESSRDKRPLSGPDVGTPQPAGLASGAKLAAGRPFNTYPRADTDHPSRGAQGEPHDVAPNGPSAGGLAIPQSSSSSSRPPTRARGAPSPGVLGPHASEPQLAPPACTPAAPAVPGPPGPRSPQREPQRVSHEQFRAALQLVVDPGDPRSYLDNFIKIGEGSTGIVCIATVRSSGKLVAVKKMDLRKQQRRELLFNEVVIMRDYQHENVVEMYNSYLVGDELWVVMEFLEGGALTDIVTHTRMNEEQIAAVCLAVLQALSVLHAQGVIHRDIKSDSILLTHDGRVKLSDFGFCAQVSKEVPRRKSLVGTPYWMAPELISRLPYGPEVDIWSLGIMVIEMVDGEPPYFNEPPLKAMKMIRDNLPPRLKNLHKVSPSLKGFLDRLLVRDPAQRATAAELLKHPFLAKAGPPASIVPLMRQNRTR

Ki [1] | Ki [2] | Ki [3] | Ki [4] | Ki [5] | Ki [6] | Ki [7] | Ki [9] | Ki [10] | Ki [11] | Ki [12] | Ki [13] | Ki [14] | Ki [15] | Ki [20] | Ki [23] | Ki [28] | Ki [30] | Ki [34] | Structure (SMILES) | Ki [8] | other results
1.58 µM (active) | > 3.16 µM (inactive) | > 2.51 µM (inactive) | 0.794 µM (active) | 0.398 µM (active) | > 6.31 µM (inactive) | 2 µM (active) | 3.98 µM (active) | 0.501 µM (active) | > 6.31 µM (inactive) | 3.16 µM (active) | > 3.16 µM (inactive) | 0.1 µM (active) | > 3.16 µM (inactive) | > 3.16 µM (inactive) | 0.00501 µM (active) | > 6.31 µM (inactive) | > 3.98 µM (inactive) | 0.01 µM (active) | O=C(Nc1n[nH]c2ccc(-c3cn(Cc4ccccc4)nn3)cc12)c1cc(F)ccc1F | 0.0501 µM (active) | Ki [16]: 0.00398 µM (active); Ki [17]: > 2.51 µM (inactive); Ki [18]: > 3.98 µM (inactive); Ki [19]: > 2 µM (inactive); Ki [21]: > 2.51 µM (inactive); Ki [22]: > 2.51 µM (inactive); Ki [24]: > 6.31 µM (inactive); Ki [25]: > 2.51 µM (inactive); Ki [26]: 1.26 µM (active); Ki [27]: 0.794 µM (active); Ki [29]: > 3.16 µM (inactive); Ki [31]: 0.2 µM (active); Ki [32]: > 3.98 µM (inactive); Ki [33]: > 3.98 µM (inactive); Ki [35]: 2 µM (active); Ki [36]: > 3.98 µM (inactive); Ki [37]: 0.0501 µM (active); Ki [38]: > 3.98 µM (inactive); Ki [39]: > 2.51 µM (inactive)
> 2.51 µM (inactive) | > 3.16 µM (inactive) | > 1.58 µM (inactive) | > 3.16 µM (inactive) | > 1.58 µM (inactive) | > 3.16 µM (inactive) | > 1.58 µM (inactive) | > 3.98 µM (inactive) | > 3.16 µM (inactive) | > 3.16 µM (inactive) | > 3.16 µM (inactive) | > 3.16 µM (inactive) | 0.0631 µM (active) | > 1.58 µM (inactive) | > 6.31 µM (inactive) | > 2.51 µM (inactive) | > 3.16 µM (inactive) | > 3.98 µM (inactive) | > 6.31 µM (inactive) | CS(=O)(=O)N(Cc1ccc2[nH]c(=O)c3cccn3c2c1)C1CC1 | > 3.16 µM (inactive) | Ki [16]: > 2 µM (inactive); Ki [17]: > 2.51 µM (inactive); Ki [18]: > 3.98 µM (inactive); Ki [19]: > 2.51 µM (inactive); Ki [21]: > 1.58 µM (inactive); Ki [22]: > 5.01 µM (inactive); Ki [25]: > 2.51 µM (inactive); Ki [26]: > 2.51 µM (inactive); Ki [27]: 1.58 µM (active); Ki [29]: > 1.58 µM (inactive); Ki [31]: > 3.98 µM (inactive); Ki [32]: > 2 µM (inactive); Ki [33]: > 3.98 µM (inactive); Ki [36]: > 3.98 µM (inactive); Ki [37]: > 3.98 µM (inactive); Ki [38]: > 3.98 µM (inactive); Ki [39]: > 2.51 µM (inactive)
 |  |  |  |  | > 6.31 µM (inactive) |  |  | > 5.01 µM (inactive) | > 6.31 µM (inactive) | > 5.01 µM (inactive) | 0.501 µM (active) |  |  | 2 µM (active) | 1.26 µM (active) | > 6.31 µM (inactive) | 2.51 µM (active) | 0.501 µM (active) | CS(=O)(=O)Nc1ccc(Nc2ccc3[nH]nc(N)c3c2)cc1 | > 5.01 µM (inactive) | Ki [24]: > 6.31 µM (inactive); Ki [35]: > 5.01 µM (inactive)
